These results are taken from ChEMBL document CHEMBL1201862, “PubChem BioAssay data set” (2004).

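How tested: cells in 96-well plates exposed to compound for 48 hours at five concentrations. GI50 marks 50% less growth.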 Calls of active or inactive are those of the source. No stated cut-off is given here; in the data, active = GI50 up to about 1.1 µM and inactive = higher.

Among the test systems are 786-0; SR; UO-31; NCI-H23; SW-620; LOX IMVI; M14; SK-MEL-28; HOP-62; CAKI-1; SK-MEL-5; SK-OV-3; SNB-19; NCI-H460.
Test in all cases: inhibition of tumour cell growth, NCI panel, 48 h

Take `COc1cccc2ccc(C(=O)c3ccccc3)nc12`: the GI50 is > 100 µM (inactive) in the test with 786-0; > 100 µM (inactive) with SR; 2.22 µM (inactive) in the test on UO-31; > 100 µM (inactive) in the test on NCI-H23; > 100 µM (inactive) in the test on SW-620; > 100 µM (inactive) with LOX IMVI. In addition, the GI50 with M14 is > 100 µM (inactive); in the test with SK-MEL-28, 88.9 µM (inactive); in the test with HOP-62 it was > 100 µM (inactive); in the test with CAKI-1 it was > 100 µM (inactive); in the test on SK-MEL-5 it was > 100 µM (inactive).

Regarding `C#C[C@@]1(O)CCCC2=CC(=O)C[C@]21C`, the GI50 with 786-0, in the test with SR, in the test with UO-31, in the test on NCI-H23, with SW-620 and in the test on M14 was > 100 µM (inactive) in each case. In addition, the GI50 in the test with SK-OV-3, in the test on SK-MEL-28, in the test with SNB-19, in the test with NCI-H460 and in the test on SK-MEL-5 was > 100 µM (inactive) throughout.

On to `CC(=O)OC1COC(N2C(=O)C(=O)c3ccccc32)C(OC(C)=O)C1OC(C)=O` (configuration not stated), for which the GI50 in the test on 786-0, in the test with SR, in the test on UO-31, in the test on NCI-H23, in the test on SW-620 and in the test with LOX IMVI was > 100 µM (inactive) in each case. Further, the GI50 in the test with M14, in the test with SK-OV-3, with SK-MEL-28, with HOP-62, with SNB-19 and with CAKI-1 was > 100 µM (inactive) each time. Further, the GI50 in the test with NCI-H460 and with SK-MEL-5 was > 100 µM (inactive) in each case.

With `CC(=O)C1=C(C)NC2C=CC=CN12` (configuration not stated), the GI50 in the test with 786-0, in the test on SR, in the test on UO-31, with NCI-H23, in the test with SW-620 and in the test on LOX IMVI was > 100 µM (inactive) each time. Further, the GI50 in the test on M14, in the test with SK-OV-3, with SK-MEL-28, in the test on HOP-62, in the test with SNB-19 and with CAKI-1 was > 100 µM (inactive) in each case. In addition, the GI50 in the test on NCI-H460 and in the test on SK-MEL-5 was > 100 µM (inactive) in each case.

`COC(=O)C[S+]([O-])c1ccccc1` (configuration not stated): the GI50 in the test with 786-0 is 26.7 µM (inactive); in the test with UO-31, 4.63 µM (inactive); in the test with NCI-H23 it was 35 µM (inactive); with SW-620 it was 38.3 µM (inactive); with LOX IMVI, 21.8 µM (inactive); with M14, 37.3 µM (inactive). Moreover, the GI50 in the test on SK-OV-3 is 60.7 µM (inactive); with SK-MEL-28 it was 29.8 µM (inactive); in the test with HOP-62, 32.6 µM (inactive); in the test with SNB-19, 37.8 µM (inactive); in the test on CAKI-1, 58.1 µM (inactive); in the test with NCI-H460, 59.8 µM (inactive). For the same compound, the GI50 with SK-MEL-5 is 25.4 µM (inactive).

On to `COc1ccc(CC#C/C=C/C(=O)NCC(C)C)cc1`, for which the GI50 in the test with 786-0 is > 100 µM (inactive); in the test on SR, 66.1 µM (inactive); in the test with UO-31, > 100 µM (inactive); with NCI-H23, > 100 µM (inactive); in the test with SW-620, > 100 µM (inactive); with LOX IMVI, > 100 µM (inactive). Besides, the GI50 in the test on M14, in the test on SK-OV-3, with SK-MEL-28, with SNB-19, in the test on NCI-H460 and with SK-MEL-5 was > 100 µM (inactive) throughout.

`CN(C)c1nc(N(C)C)sc(=O)n1`: the GI50 with 786-0, in the test with SR, in the test with UO-31, with NCI-H23, with SW-620 and with M14 was > 100 µM (inactive) throughout. Further, the GI50 in the test with SK-OV-3, in the test with SK-MEL-28, in the test on HOP-62, with SNB-19, with CAKI-1 and in the test on NCI-H460 was > 100 µM (inactive) throughout. In addition, the GI50 in the test on SK-MEL-5 is > 100 µM (inactive).

In the case of `C[N+](C)(C)CC1CCCCC1O` (configuration not stated), the GI50 with 786-0, in the test with SR, in the test with UO-31, in the test on NCI-H23, in the test with SW-620 and in the test with LOX IMVI was > 100 µM (inactive) in each case. The GI50 in the test with M14, in the test on SK-OV-3, with SK-MEL-28, in the test on HOP-62, in the test with CAKI-1 and in the test with NCI-H460 was > 100 µM (inactive) in each case. In the test with SK-MEL-5, the GI50 was > 100 µM (inactive).

Turning to `O=C1c2ccccc2C(=O)N1C/C=N/NS(=O)(=O)c1ccc2ccccc2c1`, the GI50 in the test with 786-0, in the test on SR, with UO-31, in the test on NCI-H23, with SW-620 and in the test on M14 was > 100 µM (inactive) each time. Further, the GI50 with SK-OV-3, in the test with HOP-62, with SNB-19, in the test on CAKI-1, in the test on NCI-H460 and in the test on SK-MEL-5 was > 100 µM (inactive) each time.

As for `CCS/C(=N\c1ccccc1)SC`, the GI50 in the test with 786-0, with UO-31, in the test on NCI-H23, in the test with SW-620, with LOX IMVI and in the test with M14 was > 100 µM (inactive) throughout. The GI50 with SK-OV-3, in the test with SK-MEL-28, with HOP-62, with SNB-19, with CAKI-1 and with NCI-H460 was > 100 µM (inactive) each time. Also, the GI50 with SK-MEL-5 is > 100 µM (inactive).

With `O=C(NN1C(=O)C(Cl)C1c1ccc(O)cc1)c1ccccc1O` (configuration not stated), the GI50 with 786-0 was 18.7 µM (inactive); in the test with UO-31, 15.6 µM (inactive); in the test on NCI-H23, 22.2 µM (inactive); in the test on LOX IMVI it was 16.7 µM (inactive); in the test on M14, 22.2 µM (inactive); in the test on SK-OV-3, 25.8 µM (inactive). Also, the GI50 in the test with SK-MEL-28 was 19.4 µM (inactive); in the test with SNB-19 it was 23 µM (inactive); in the test on NCI-H460, 17.5 µM (inactive); in the test with SK-MEL-5 it was 14.6 µM (inactive).

`Cc1cc(C)[n+]2c(c1)C=CC2.[O-][Cl+3]([O-])([O-])[O-]`: the GI50 is 37.2 µM (inactive) in the test on 786-0; 39.4 µM (inactive) in the test on UO-31; 15.7 µM (inactive) in the test with NCI-H23; 4.18 µM (inactive) in the test with SW-620; 17.1 µM (inactive) with LOX IMVI; 8.11 µM (inactive) in the test on M14. The GI50 in the test on SK-MEL-28 is 12.4 µM (inactive); in the test on HOP-62, 57.1 µM (inactive); in the test with SNB-19, 42.7 µM (inactive); in the test on CAKI-1, 15.6 µM (inactive); in the test on NCI-H460, 34.8 µM (inactive); in the test with SK-MEL-5 it was 13.9 µM (inactive).

As for `O/N=C1/C(=C/c2ccc(Oc3ccccc3)cc2)CCCC1C(NO)c1ccc(Oc2ccccc2)cc1` (configuration not stated), the GI50 was 28.6 µM (inactive) in the test with 786-0; 21 µM (inactive) with UO-31; 16.9 µM (inactive) in the test with NCI-H23; 32.4 µM (inactive) in the test on SW-620; 13.6 µM (inactive) in the test on LOX IMVI; 40.6 µM (inactive) in the test on M14. The GI50 with SK-OV-3 is > 100 µM (inactive); in the test with SK-MEL-28 it was 61.2 µM (inactive); with HOP-62, > 100 µM (inactive); in the test with SNB-19 it was > 100 µM (inactive); with CAKI-1, 33.2 µM (inactive); in the test on NCI-H460, 27.9 µM (inactive). Moreover, the GI50 with SK-MEL-5 is 13.4 µM (inactive).

`CCCC(C)NC1=C(NC(C)=O)C(=O)c2ccccc2C1=O` (configuration not stated): the GI50 with 786-0, in the test with SR, with UO-31, with NCI-H23, in the test on SW-620 and in the test on LOX IMVI was > 100 µM (inactive) each time. Further, the GI50 in the test with M14, with SK-OV-3, with SK-MEL-28, with HOP-62, in the test with SNB-19 and with NCI-H460 was > 100 µM (inactive) in each case. In the test with SK-MEL-5, the GI50 was 73.8 µM (inactive).

Turning to `CC1=C(CO)C(=O)O[C@@H]([C@@H](C)[C@H]2CC[C@H]3[C@@H]4C[C@H]5O[C@]56[C@@H](O)C=CC(=O)[C@]6(C)[C@H]4CC[C@]23C)C1` [WITHAFERIN A], the GI50 in the test with 786-0 was 0.401 µM (active); with SR, 0.189 µM (active); in the test with UO-31, 1.09 µM (active); in the test with NCI-H23, 0.221 µM (active); in the test with SW-620, 0.199 µM (active); in the test with M14 it was 0.423 µM (active). Besides, the GI50 in the test with SK-MEL-28 is 0.55 µM (active); in the test on HOP-62, 2.04 µM (inactive); with SNB-19, 2.99 µM (inactive); in the test on CAKI-1, 0.463 µM (active); in the test on NCI-H460 it was 2.91 µM (inactive); with SK-MEL-5 it was 1.68 µM (inactive).

Consider `COc1cc(/C=C(\NC(=O)c2ccccc2)c2nc3c(O)nc(S)nc3[nH]2)cc(OC)c1OC`, for which the GI50 in the test with 786-0, in the test on SR, in the test on UO-31, in the test with NCI-H23, with SW-620 and with M14 was > 100 µM (inactive) in each case. Moreover, the GI50 in the test on SK-OV-3, in the test with SK-MEL-28, with SNB-19, in the test on CAKI-1 and in the test with SK-MEL-5 was > 100 µM (inactive) each time.
